#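 Dose response: 5 concentrations. Exposure: 48 h. Format: 96-well plates. Endpoint: linear interpolation; highest concentration if not reached. GI50 = concentration required for 50% inhibition of growth.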 Activity calls are given as the source filed them. No stated cut-off is given here; in the data, active = GI50 up to about 1.1 µM and inactive = higher.
# Legend:
# Assay in all cases: NCI-60 cell line screen, 48 h
# [1] = system: NCI-H226
# [2] = system: SF-295
# [3] = system: CAKI-1
# [4] = system: KM-20L2
# [5] = system: PC-3
# [6] = system: UACC-62
# [7] = system: HT-29
# [8] = system: MDA-MB-231
# [9] = system: CCRF-CEM
# [10] = system: SF-539
# [11] = system: MDA-N
# [12] = system: HCT-15
# [13] = system: LXFL 529
# [14] = system: UACC-257
# [15] = system: NCI-H460
# [16] = system: EKVX
# [17] = system: MCF7
# [18] = system: OVCAR-4
# [19] = system: LOX IMVI
# [20] = system: COLO 205
SMILES,GI50 [1],GI50 [2],GI50 [3],GI50 [4],GI50 [5],GI50 [6],GI50 [7],GI50 [8],GI50 [9],GI50 [10],GI50 [11],GI50 [12],GI50 [13],GI50 [14],GI50 [15],GI50 [16],GI50 [17],GI50 [18],GI50 [19],GI50 [20]
O=C(/C=C/c1ccccc1)CCN1CCOCC1,20.8 µM (inactive),19 µM (inactive),8.39 µM (inactive),15.9 µM (inactive),17.4 µM (inactive),16 µM (inactive),13.6 µM (inactive),16.6 µM (inactive),1.82 µM (inactive),12.1 µM (inactive),14.2 µM (inactive),8.57 µM,2.78 µM (inactive),12.2 µM (inactive),17.8 µM (inactive),18.5 µM (inactive),4.99 µM (inactive),20.9 µM (inactive),10.9 µM (inactive),8.3 µM (inactive)
Nc1nc(CC2(O)CCCCC2)cc(-c2ccccc2)n1,> 44.8 µM (inactive),38.5 µM (inactive),51.2 µM (inactive),17.5 µM (inactive),–,23.4 µM (inactive),16.6 µM (inactive),–,27.5 µM (inactive),> 74 µM (inactive),–,> 43.9 µM,> 66.7 µM (inactive),36.3 µM (inactive),24.3 µM (inactive),35.6 µM (inactive),–,35.1 µM (inactive),40.4 µM (inactive),16.7 µM (inactive)
FC1OC2OC1C(OCc1ccccc1)C(OCc1ccccc1)C2OCc1ccccc1 (configuration not stated),77.3 µM (inactive),> 100 µM (inactive),35.5 µM (inactive),42.8 µM (inactive),–,30.1 µM (inactive),34.8 µM (inactive),–,26.6 µM (inactive),> 100 µM (inactive),–,35.7 µM,34 µM (inactive),35.5 µM (inactive),> 100 µM (inactive),87.7 µM (inactive),–,34.1 µM (inactive),43.8 µM (inactive),61.9 µM (inactive)
COC(=O)C(=O)C(CC(=O)Nc1cccc(C(F)(F)F)c1)C(=O)OC (configuration not stated),> 100 µM (inactive),–,> 100 µM (inactive),> 100 µM (inactive),–,> 100 µM (inactive),–,–,> 100 µM (inactive),> 100 µM (inactive),–,> 100 µM,> 100 µM (inactive),–,> 100 µM (inactive),> 100 µM (inactive),–,> 100 µM (inactive),> 100 µM (inactive),> 100 µM (inactive)
CCN(CC)CC(C)C(=O)/C=C/c1ccc(C)cc1 (configuration not stated),16.6 µM (inactive),15 µM (inactive),1.22 µM (inactive),10 µM (inactive),–,3.3 µM (inactive),1.85 µM (inactive),–,3.05 µM (inactive),2.05 µM (inactive),–,2.53 µM,1.76 µM (inactive),2.23 µM (inactive),4.83 µM (inactive),13.8 µM (inactive),–,2.23 µM (inactive),1.29 µM (inactive),1.55 µM (inactive)
C/C(=N\NC(=[Se])N(C)C)c1ccccn1,0.0973 µM (active),< 0.01 µM (active),0.188 µM (active),< 0.01 µM (active),< 0.01 µM (active),< 0.01 µM (active),< 0.01 µM (active),0.0131 µM (active),< 0.01 µM (active),0.577 µM (active),1.89 µM (inactive),0.0352 µM,< 0.01 µM (active),< 0.01 µM (active),< 0.01 µM (active),0.0703 µM (active),< 0.01 µM (active),0.103 µM (active),< 0.01 µM (active),< 0.01 µM (active)
Cc1ccc(SSc2ccc(C)cc2C(=O)O)c(C(=O)O)c1,> 100 µM (inactive),> 100 µM (inactive),> 100 µM (inactive),> 100 µM (inactive),–,> 100 µM (inactive),> 100 µM (inactive),–,> 100 µM (inactive),> 100 µM (inactive),–,–,> 100 µM (inactive),> 100 µM (inactive),> 100 µM (inactive),> 100 µM (inactive),–,> 100 µM (inactive),> 100 µM (inactive),> 100 µM (inactive)
CCN(CC)CCCC(C)Nc1ccnc2cc(Cl)ccc12 (configuration not stated) [CHLOROQUINE PHOSPHATE],–,21 µM (inactive),20.8 µM (inactive),14.6 µM (inactive),19 µM (inactive),28.8 µM (inactive),17.5 µM (inactive),15.8 µM (inactive),20.8 µM (inactive),16.6 µM (inactive),16.6 µM (inactive),24.9 µM,57.3 µM (inactive),23.1 µM (inactive),18 µM (inactive),> 57 µM (inactive),19.1 µM (inactive),51.3 µM (inactive),20.6 µM (inactive),9.38 µM (inactive)
CC(=O)NC(CCCN(Cc1ccccc1)C(=O)N(C)N=O)C(=O)NCc1ccccc1 (configuration not stated),> 100 µM (inactive),> 100 µM (inactive),> 100 µM (inactive),> 100 µM (inactive),–,> 100 µM (inactive),> 100 µM (inactive),–,> 100 µM (inactive),> 100 µM (inactive),–,> 100 µM,> 100 µM (inactive),> 100 µM (inactive),> 100 µM (inactive),> 100 µM (inactive),–,> 100 µM (inactive),> 100 µM (inactive),> 100 µM (inactive)
COC(=O)C(C#CCCCCC#CC(NC(=O)OCc1ccccc1)(C(=O)OC)C(F)(F)F)(NC(=O)OCc1ccccc1)C(F)(F)F (configuration not stated),> 100 µM (inactive),> 100 µM (inactive),> 100 µM (inactive),> 100 µM (inactive),–,> 100 µM (inactive),> 100 µM (inactive),–,> 100 µM (inactive),> 100 µM (inactive),–,> 100 µM,> 100 µM (inactive),> 100 µM (inactive),> 100 µM (inactive),> 100 µM (inactive),–,> 100 µM (inactive),> 100 µM (inactive),> 100 µM (inactive)
CCc1cccc(C)c1NC(=O)CCc1nnc2s/c(=C\c3cccc4ccccc34)c(=O)n12,> 100 µM (inactive),71.1 µM (inactive),> 100 µM (inactive),> 100 µM (inactive),–,> 100 µM (inactive),> 100 µM (inactive),–,92.9 µM (inactive),> 100 µM (inactive),–,89.1 µM,73.3 µM (inactive),> 100 µM (inactive),> 100 µM (inactive),–,–,> 100 µM (inactive),80.7 µM (inactive),> 100 µM (inactive)
